{"source": "paper PMC6257630", "about": "“Photoactivatable Cell-Selective Dinuclear trans-Diazidoplatinum(IV) Anticancer Prodrugs” (Inorganic Chemistry, 2018)", "origin": "cited, not measured here", "tested_on": "cisplatin-resistant A2780cis cells", "set-up": "method as in PMID 20677309", "conditions": "irradiation with UVA (365 nm); cited from earlier work"}
{"substance": "trans,trans,trans-[Pt(N3)2(OH)2(py)2] [FM-190]", "values": [{"measurement": "IC50", "value": 14.5, "unit": "µM"}]}
